Assay results from the supplement of paper PMC10307832.

These cell lines were tested with C[C@]1(c2nc3c(C(N)=O)cccc3[nH]2)CCCN1 [Veliparib] + Cc1cc(Nc2cc(N3CCN(C)CC3)nc(Sc3ccc(NC(=O)C4CC4)cc3)n2)n[nH]1 [Tozasertib] (partner 0.1 µM) (assay: relative viability (nuclei count vs DMSO), 5 days (fraction); higher = more cells survive). Conditions: first compound 2 µM.
Outline: (§1)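 Lung cancer cell lines in 1536-well plates got either a single drug or a fixed anchor-drug dose together with five library-drug doses (not always all listed) in √10 steps, by pin tool, on the day after seeding. Nuclei were counted after 5 days, and relative viability is the treated-to-vehicle ratio of nuclei counts. Values are medians of duplicate plates.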

| Cell Line | relative viability |
| --- | --- |
| EPLC-272H | 0.249 |
| LK-2 | 0.18 |
| HCC-44 | 0.919 |
| HCC-366 | 0.112 |

The cell lines below were run with COC1=CC=C(C=C1)CN2C=CC3=C2C=C(C=C3)C(=O)NO + CCNC(=O)c1noc(-c2cc(C(C)C)c(O)cc2O)c1-c1ccc(CN2CCOCC2)cc1 [Luminespib] (partner 0.01 µM) in the same assay as above. Conditions: first compound 0.08 µM.
Outline: as §1

| Cell Line | relative viability |
| --- | --- |
| NCI-H2342 | 0.697 |
| NCI-H1623 | 0.578 |
| NCI-H1975 | 0.26 |
| H3255 | 0.846 |
| NCI-H2023 | 0.67 |
| NCI-H2405 | 0.59 |
| SK-LU-1 | 0.184 |
| NCI-H1437 | 1 |
| NCI-H596 | 0.934 |
| HCC-15 | 0.319 |
| NCI-H460 | 0.0291 |
| EMC-BAC-2 | 0.964 |
| NCI-H2009 | 1.04 |
| COR-L 105 | 0.858 |
| NCI-H1395 | 0.662 |
| NCI-H358 | 0.25 |
| EKVX | 0.864 |
| NCI-H1650 | 0.194 |
| EPLC-272H | 0.262 |
| NCI-H1563 | 0.507 |
| HCC-44 | 0.908 |
| NCI-H1792 | 0.37 |

Same assay, conditions: first compound 0.253 µM

| Cell Line | relative viability |
| --- | --- |
| NCI-H2342 | 0.629 |
| NCI-H1623 | 0.761 |
| LU99A | 0.227 |
| NCI-H1975 | 0.238 |
| H3255 | 0.789 |
| NCI-H2023 | 0.885 |
| NCI-H2405 | 0.689 |
| SK-LU-1 | 0.197 |
| NCI-H1734 | 0.219 |
| NCI-H1437 | 1.13 |
| ABC-1 | 0.844 |
| NCI-H596 | 0.955 |
| HCC-15 | 0.277 |
| NCI-H460 | 0.0369 |
| EMC-BAC-2 | 1.25 |
| NCI-H2009 | 1.04 |
| COR-L 105 | 0.871 |
| NCI-H1395 | 0.659 |
| NCI-H520 | 0.207 |
| NCI-H358 | 0.428 |
| EKVX | 0.896 |
| NCI-H1650 | 0.189 |
| LK-2 | 0.21 |
| NCI-H1563 | 0.506 |
| HCC-44 | 1.05 |
| NCI-H1792 | 0.638 |

Same assay, conditions: first compound 0.8 µM

| Cell Line | relative viability |
| --- | --- |
| NCI-H2342 | 0.762 |
| NCI-H1623 | 0.576 |
| LU99A | 0.288 |
| NCI-H1975 | 0.281 |
| H3255 | 1.03 |
| NCI-H2023 | 0.724 |
| NCI-H2405 | 0.77 |
| SK-LU-1 | 0.183 |
| NCI-H1734 | 0.218 |
| NCI-H1437 | 1.09 |
| ABC-1 | 0.391 |
| NCI-H596 | 0.972 |
| HCC-15 | 0.304 |
| NCI-H460 | 0.0487 |
| EMC-BAC-2 | 1.16 |
| NCI-H2009 | 1 |
| COR-L 105 | 0.893 |
| NCI-H1395 | 0.628 |
| NCI-H520 | 0.193 |
| NCI-H358 | 0.374 |
| EKVX | 0.913 |
| NCI-H1650 | 0.194 |
| EPLC-272H | 0.333 |
| LK-2 | 0.168 |
| NCI-H1563 | 0.517 |
| HCC-44 | 1.01 |
| NCI-H1792 | 0.529 |

Same assay, conditions: first compound 2.53 µM

| Cell Line | relative viability |
| --- | --- |
| NCI-H2342 | 0.786 |
| NCI-H1623 | 0.471 |
| LU99A | 0.29 |
| NCI-H1975 | 0.262 |
| H3255 | 0.896 |
| NCI-H2023 | 0.586 |
| NCI-H2405 | 0.679 |
| SK-LU-1 | 0.191 |
| NCI-H1734 | 0.181 |
| NCI-H1437 | 1.18 |
| ABC-1 | 0.435 |
| NCI-H596 | 1.01 |
| HCC-15 | 0.45 |
| NCI-H460 | 0.0276 |
| EMC-BAC-2 | 1.21 |
| NCI-H2009 | 1.02 |
| COR-L 105 | 0.713 |
| NCI-H1395 | 0.708 |
| NCI-H520 | 0.227 |
| NCI-H358 | 0.434 |
| EKVX | 0.858 |
| NCI-H1650 | 0.213 |
| EPLC-272H | 0.4 |
| LK-2 | 0.194 |
| NCI-H1563 | 0.551 |
| HCC-44 | 0.936 |
| NCI-H1792 | 0.35 |

Same assay, conditions: first compound 8 µM

| Cell Line | relative viability |
| --- | --- |
| NCI-H2342 | 0.738 |
| NCI-H1623 | 0.392 |
| LU99A | 0.277 |
| NCI-H1975 | 0.114 |
| H3255 | 0.589 |
| NCI-H2023 | 0.553 |
| NCI-H2405 | 0.583 |
| SK-LU-1 | 0.185 |
| NCI-H1734 | 0.184 |
| NCI-H1437 | 1.13 |
| ABC-1 | 0.391 |
| NCI-H596 | 0.863 |
| HCC-15 | 0.34 |
| NCI-H460 | 0.0281 |
| EMC-BAC-2 | 1.11 |
| NCI-H2009 | 0.933 |
| COR-L 105 | 0.485 |
| NCI-H1395 | 0.604 |
| NCI-H520 | 0.226 |
| NCI-H358 | 0.213 |
| EKVX | 0.783 |
| NCI-H1650 | 0.203 |
| EPLC-272H | 0.235 |
| LK-2 | 0.157 |
| NCI-H1563 | 0.488 |
| HCC-44 | 0.837 |
| NCI-H1792 | 0.414 |
